Data from ChEMBL document CHEMBL3826905, “1'-Homonucleosides and their structural analogues: A review” (Eur J Med Chem, 2016).
Converted amounts (≈) assume the structure as drawn.

What was measured:
[1] = Inhibition of Escherichia coli methionyl-tRNA synthetase assessed as decrease in [35S]methionyl-tRNA generation
[2] = target: Isoleucine--tRNA ligase (Escherichia coli K-12, UniProt P00956); test: Inhibition of Escherichia coli isoleucyl-tRNA synthetase assessed as decrease in [3H]isoleucyl-tRNA generation
Isoleucine--tRNA ligase, sequence (P00956 whole entry): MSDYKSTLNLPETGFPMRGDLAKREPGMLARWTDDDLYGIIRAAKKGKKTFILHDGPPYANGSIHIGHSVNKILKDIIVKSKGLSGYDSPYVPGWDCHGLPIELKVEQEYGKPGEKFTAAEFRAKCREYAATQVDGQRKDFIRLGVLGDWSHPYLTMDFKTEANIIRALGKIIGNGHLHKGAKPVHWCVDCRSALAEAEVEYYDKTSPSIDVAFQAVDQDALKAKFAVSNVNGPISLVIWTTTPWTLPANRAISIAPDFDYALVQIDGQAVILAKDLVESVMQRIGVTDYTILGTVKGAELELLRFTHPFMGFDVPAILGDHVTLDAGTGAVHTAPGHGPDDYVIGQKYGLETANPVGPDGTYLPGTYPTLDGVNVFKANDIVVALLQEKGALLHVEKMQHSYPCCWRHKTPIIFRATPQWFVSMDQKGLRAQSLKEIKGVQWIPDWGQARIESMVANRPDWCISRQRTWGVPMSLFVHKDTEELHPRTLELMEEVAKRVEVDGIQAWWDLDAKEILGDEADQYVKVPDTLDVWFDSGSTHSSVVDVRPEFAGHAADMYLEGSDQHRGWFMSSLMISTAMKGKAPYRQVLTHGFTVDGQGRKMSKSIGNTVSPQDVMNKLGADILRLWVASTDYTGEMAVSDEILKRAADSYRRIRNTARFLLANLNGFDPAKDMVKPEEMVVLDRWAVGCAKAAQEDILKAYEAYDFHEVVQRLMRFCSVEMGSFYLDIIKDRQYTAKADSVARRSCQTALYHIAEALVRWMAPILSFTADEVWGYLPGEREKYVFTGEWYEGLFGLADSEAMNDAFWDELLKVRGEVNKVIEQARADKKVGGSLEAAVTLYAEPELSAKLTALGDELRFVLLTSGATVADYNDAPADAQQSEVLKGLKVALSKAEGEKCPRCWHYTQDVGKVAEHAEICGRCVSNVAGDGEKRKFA

[3] = test system: MOLT-4; test: Cytostatic activity against human Molt4/C8 cells; assay type: functional, cell-based; conditions: Homo sapiens, MOLT-4
[4] = Cytostatic activity against mouse L1210/0 cells; assay type: functional, cell-based; conditions: Mus musculus, L1210/0
[5] = test system: CCRF-CEM; test: Cytostatic activity against human CEM/0 cells; assay type: functional, cell-based
[6] = test system: Influenza A virus; test: Antiviral activity against Influenza A virus; assay type: functional, organism-based
[7] = test system: Human immunodeficiency virus 1; test: Antiviral activity against HIV1; assay type: functional, organism-based
[8] = test system: Human immunodeficiency virus 2; test: Antiviral activity against HIV2; assay type: functional, organism-based
[9] = Antiproliferative activity against mouse L1210/0 cells; assay type: functional, cell-based
[10] = Antiproliferative activity against human Molt4/C8 cells; assay type: functional, cell-based; conditions: MOLT-4
[11] = Antiproliferative activity against mouse L1210/0 cells after 48 hrs by trypan blue staining method; assay type: functional, cell-based; conditions: L1210/0, 48 h
[12] = test system: Hepatitis C virus; test: Antiviral activity against Hepatitis C virus; assay type: functional, organism-based, Hepacivirus hominis
[13] = target: T1, Inosine-adenosine-guanosine-nucleoside hydrolase (Trypanosoma brucei brucei, UniProt O15727); test: Inhibition of Trypanosoma brucei brucei inosine-adenosine-guanosine nucleoside hydrolase expressed in Escherichia coli
T1 sequence (O15727 whole entry): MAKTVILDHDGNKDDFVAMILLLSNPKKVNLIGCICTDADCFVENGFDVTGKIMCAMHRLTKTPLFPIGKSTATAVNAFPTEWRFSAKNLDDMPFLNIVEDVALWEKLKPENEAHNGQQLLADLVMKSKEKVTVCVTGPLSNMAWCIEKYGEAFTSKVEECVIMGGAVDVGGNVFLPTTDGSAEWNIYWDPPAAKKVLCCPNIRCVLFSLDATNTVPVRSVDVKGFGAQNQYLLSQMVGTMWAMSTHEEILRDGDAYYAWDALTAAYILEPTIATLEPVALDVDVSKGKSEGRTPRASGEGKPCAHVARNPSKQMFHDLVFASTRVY

[14] = target: T2, Inosine-uridine preferring nucleoside hydrolase (Crithidia fasciculata, UniProt Q27546); test: Inhibition of Crithidia fasciculata inosine-uridine nucleoside hydrolase expressed in Escherichia coli using p-nitrophenyl beta-D-ribofuranoside as substrate by xanthine oxidase coupled enzyme assay
T2 sequence (Q27546 whole entry): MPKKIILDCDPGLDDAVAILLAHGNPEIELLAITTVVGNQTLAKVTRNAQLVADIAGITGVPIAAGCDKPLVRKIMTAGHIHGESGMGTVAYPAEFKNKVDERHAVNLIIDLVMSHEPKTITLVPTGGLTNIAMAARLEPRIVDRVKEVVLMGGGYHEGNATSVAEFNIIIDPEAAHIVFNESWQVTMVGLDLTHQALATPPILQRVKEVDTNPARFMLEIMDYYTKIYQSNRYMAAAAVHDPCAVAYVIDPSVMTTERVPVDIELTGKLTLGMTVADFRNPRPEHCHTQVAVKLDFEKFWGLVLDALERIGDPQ

[15] = test system: Cytomegalovirus; test: Antiviral activity against Cytomegalovirus AD169 infected in HEL cells assessed as inhibition of viral plaque formation; assay type: functional, organism-based; conditions: Human betaherpesvirus 5, AD169, HEL
[16] = test system: Cytomegalovirus; test: Antiviral activity against Cytomegalovirus Davis infected in HEL cells assessed as inhibition of virus plaque formation; assay type: functional, organism-based; conditions: Human betaherpesvirus 5, Davis

Q: For `CSCC[C@H](N)C(=O)OC[C@H]1O[C@@H](CCn2cnc3c(N)ncnc32)[C@H](O)[C@@H]1O`, which IC50 [1] is on record?
A: 8.3 µM

Q: With `CSCC[C@H](N)C(=O)N(O)C[C@H]1O[C@@H](Cn2cnc3c(N)ncnc32)[C@H](O)[C@@H]1O` as the molecule, how does the IC50 [1] read?
A: 3.6 µM

Q: Which IC50 [2] does the source give for `CC[C@H](C)[C@H](N)C(=O)OC[C@H]1O[C@@H](Cn2cnc3c(N)ncnc32)[C@H](O)[C@@H]1O` here?
A: > 128 µM

Q: Which IC50 [1] does the source give for `CSCC[C@H](N)C(=O)OC[C@H]1O[C@@H](n2cnc3c(N)ncnc32)[C@H](O)[C@@H]1O` here?
A: 5 µM

Q: With `CC[C@H](C)[C@H](N)C(=O)N(O)C[C@H]1O[C@@H](Cn2cnc3c(N)ncnc32)[C@H](O)[C@@H]1O` as the molecule, how does the IC50 [2] read?
A: > 128 µM

Q: With `CSCC[C@H](N)C(=O)OC[C@H]1O[C@@H](Cn2cnc3c(NCc4ccccc4)ncnc32)[C@H](O)[C@@H]1O` as the molecule, how does the IC50 [1] read?
A: 3.6 µM

Q: For `CSCC[C@H](N)C(=O)OC[C@H]1O[C@@H](Cn2cnc3c(N)ncnc32)[C@H](O)[C@@H]1O`, which IC50 [1] is on record?
A: 3.6 µM

Q: Which IC50 [3] does the source give for `CCOc1ncnc2c1ncn2C[C@@H]1C[C@H](CO)c2ccccc21` here?
A: 24 µg/mL (≈ 74 µM)

Q: What about the IC50 [4] of the same molecule?
A: 24 µg/mL (≈ 74 µM)

Q: What about the IC50 [5] of the same molecule?
A: 24 µg/mL (≈ 74 µM)

Q: Which results are given for `CCCNc1ncnc2c1ncn2C[C@@H]1C[C@H](CO)c2ccccc21`?
A: IC50 [3]: 24 µg/mL (≈ 71.1 µM); IC50 [4]: 24 µg/mL (≈ 71.1 µM); IC50 [5]: 24 µg/mL (≈ 71.1 µM)

Q: With `Cc1ccc(-c2ncnc3c2ncn3C[C@@H]2C[C@H](CO)c3ccccc32)cc1` as the molecule, how does the IC50 [3] read?
A: 1.4 µg/mL (≈ 3.78 µM)

Q: What about the IC50 [4] of the same molecule?
A: 1.4 µg/mL (≈ 3.78 µM)

Q: What about the IC50 [5] of the same molecule?
A: 1.4 µg/mL (≈ 3.78 µM)

Q: With `Nc1ncnc2c1ncn2C[C@@H]1C[C@H](CO)c2ccccc21` as the molecule, how does the IC50 [3] read?
A: 24 µg/mL (≈ 81.3 µM)

Q: And the IC50 [4]?
A: 24 µg/mL (≈ 81.3 µM)

Q: And the IC50 [5]?
A: 24 µg/mL (≈ 81.3 µM)

Q: For `Nc1ncnc2c1ncn2C[C@H]1C[C@H](O)[C@@H](CO)O1`, which IC50 [6] is on record?
A: 49.2 µg/mL (≈ 185 µM)

Q: With `CC1(C)[C@@H](Cn2cnc3c(N)nc(N)nc32)CC[C@@]1(C)CO` as the molecule, how does the EC50 [7] read?
A: 4 µg/mL (≈ 13.1 µM)

Q: And the EC50 [8]?
A: 4 µg/mL (≈ 13.1 µM)

Q: With `COc1ncnc2c1ncn2C[C@@H]1C[C@H](CO)c2ccccc21` as the molecule, how does the IC50 [3] read?
A: 24 µg/mL (≈ 77.3 µM)

Q: What about the IC50 [4] of the same molecule?
A: 24 µg/mL (≈ 77.3 µM)

Q: What about the IC50 [5] of the same molecule?
A: 24 µg/mL (≈ 77.3 µM)

Q: Which results are given for `OC[C@H]1C[C@@H](Cn2cnc3c(O)ncnc32)c2ccccc21`?
A: IC50 [3]: 24 µg/mL (≈ 81 µM); IC50 [4]: 24 µg/mL (≈ 81 µM); IC50 [5]: 24 µg/mL (≈ 81 µM)

Q: With `CC1(C)[C@@H](Cn2cnc3c(Cl)nc(N)nc32)CC[C@@]1(C)CO` as the molecule, how does the IC50 [9] read?
A: 16.2 µg/mL (≈ 50 µM)

Q: And the IC50 [10]?
A: 13.2 µg/mL (≈ 40.8 µM)

Q: And the EC50 [7]?
A: 4 µg/mL (≈ 12.4 µM)

Q: What about the EC50 [8] of the same molecule?
A: 4 µg/mL (≈ 12.4 µM)

Q: With `OC[C@@H]1C=C[C@H](Cn2cnc3c(O)ncnc32)C1` as the molecule, how does the IC50 [11] read?
A: > 200 µM

Q: Which IC50 [6] does the source give for `Cc1cn(C[C@H]2C[C@H](OCc3ccccc3)[C@@H](COCc3ccccc3)O2)c(=O)[nH]c1=O` here?
A: 70.3 µg/mL (≈ 161 µM)

Q: For `Nc1ncnc2c1ncn2C[C@H]1C=C[C@@H](CO)C1`, which IC50 [11] is on record?
A: > 200 µM

Q: For `Nc1nc2c(ncn2C[C@H]2C=C[C@@H](CO)C2)c(=O)[nH]1`, which IC50 [11] is on record?
A: > 200 µM

Q: Which EC50 [12] does the source give for `O[C@H]1C[C@@]2(Cn3cnc4c(Cl)ncnc43)O[C@@H]1c1ccccc12` here?
A: 45.1 µM

Q: For `Nc1ncnc2c1N=CC2[C@@H]1N[C@H](CO)[C@@H](O)[C@H]1O` (some centres undefined), which Ki [13] is on record?
A: 0.003 µM

Q: And the Ki [14]?
A: 0.007 µM

Q: Which IC50 [6] does the source give for `O=c1[nH]cnc2c1ncn2C[C@H]1C[C@H](O)[C@@H](CO)O1` here?
A: 25.2 µg/mL (≈ 94.6 µM)

Q: For `OCC12C=CC(Cn3cnc4c(Cl)ncnc43)(O1)c1ccccc12` (centres undefined), which EC50 [12] is on record?
A: 45.1 µM

Q: Which results are given for `Nc1nc(Cl)c2ncn(C[C@H]3CCC[C@H]3CO)c2n1`?
A: IC50 [15]: > 5 µg/mL; IC50 [16]: > 5 µg/mL

Q: With `CC1(C)[C@@H](Cn2cnc3c(NC4CC4)nc(N)nc32)CC[C@@]1(C)CO` as the molecule, how does the IC50 [11] read?
A: 13.9 µg/mL

Q: Which EC50 [12] does the source give for `OC[C@@]12O[C@@](Cn3cnc4c(Cl)ncnc43)(c3ccccc31)[C@H](O)[C@@H]2O` here?
A: 45.1 µM

Q: For `Nc1ncnc2c1ncn2C[C@H]1C[C@H](OCc2ccccc2)[C@@H](COCc2ccccc2)O1`, which IC50 [6] is on record?
A: 39.9 µg/mL (≈ 89.6 µM)

Q: For `Cn1ncc2c1[C@@H](CO[Si](c1ccccc1)(c1ccccc1)C(C)(C)C)C[C@H]2Cn1cnc2c(O)ncnc21`, which IC50 [3] is on record?
A: 3.2 µg/mL (≈ 5.94 µM)

Q: What about the IC50 [4] of the same molecule?
A: 3.2 µg/mL (≈ 5.94 µM)

Q: What about the IC50 [5] of the same molecule?
A: 3.2 µg/mL (≈ 5.94 µM)
